Experimental findings from patent publication US20230355513A1, “PARTICLES INCLUDING CHITOSAN-BILIRUBIN CONJUGATE, AND ORAL PHARMACEUTICAL COMPOSITION INCLUDING SAME” (KOREA ADVANCED INSTITUTE OF SCIENCE AND TECHNOLOGY, priority 2021, published 2023) are described below.

The test system of the test is mouse inflammatory bowel disease model (DSS). In words: Efficacy in mouse inflammatory bowel disease model with 5-ASA control (Example 7). It is filed as in vivo. The following applies: 50 mg/kg, compared with the other groups.

The structures appear in SMILES notation.

Source text: As the symptoms of inflammatory bowel disease were aggravated, systemic inflammations may be caused through the release of inflammatory cytokines in the blood, and therefore, an effective anti-inflammatory medicine was thought to inhibit the release of inflammatory substances in the spleen, liver, kidney, or the like to prevent the inflammations, and thus this was investigated.

As for `Nc1ccc(O)c(C(=O)O)c1` [5-ASA, 5-aminosalicylic acid], the spleen weight result is recorded as “spleen weight was high”.
